{"source": "patent US7488493B2", "about": "“Performance aid for pesticide or repellent compositions” (Arkion Life Sciences, LLC, priority 2003, dated 2009)", "origin": "cited, not measured here", "tested_on": "birds", "data": [{"smiles": "O=C1c2ccccc2C(=O)c2ccccc21", "note": "[9,10-anthraquinone]", "values": [{"measurement": "Lower limit of detection in birds (threshold where birds begin to sense the repellency)", "setting": "in vivo", "result": 125, "unit": "ppm"}, {"measurement": "Content in seed at which birds will not feed", "setting": "treated seed", "result": 0.1, "unit": "% by weight"}]}]}
